Experimental data reported in PubChem BioAssay AID179 (DTP/NCI, 2004).
The source made the active and inactive calls.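 The calls were made as follows: active = compounds giving half or more protection of infected cells from virus-caused growth loss, again on retest; inactive = the rest.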 Where a SMILES comes first, the peptide text is derived from it.

Tested on: CEM cells HIV-1 protection, formazan growth assay
Experiment: NCI AIDS Antiviral Assay
Details: for IC50: measured here: growth of uninfected CEM cells
Procedure, shortened: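 Five concentrations of each compound were applied to infected and uninfected human CEM cells. Protection from HIV-1 was judged from growth measured with a soluble formazan assay.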

Compound | EC50 [µM] | IC50 [µM] | outcome
C#CCN(Cc1ccc2nc(-c3ccccc3)c(Cl)nc2c1)c1cc(OC)c(OC)c(OC)c1 | > 7.94 | > 7.94 | –
Cc1cc(C)nc(NS(=O)(=O)c2ccc(NNC(=O)c3cccc4c(NNc5ccc(S(=O)(=O)Nc6nc(C)cc(C)n6)cc5)c5ccccc5nc34)cc2)n1 | > 200 | 21.9 | –
NNC(=O)CC(=O)N(C(=O)/C=C/c1ccccc1)c1ccc(Cl)cc1 | > 200 | > 200 | –
[C-]#[O+].[C-]#[O+].[C-]#[O+].[Mo].c1ccc([PH+](CC[As](c2ccccc2)c2ccccc2)CC[As](c2ccccc2)c2ccccc2)cc1 | – | – | inactive
O=C(O)C1C2CC3CC2CC31 (stereo unspecified) | – | – | inactive
Cc1cc2c(cc1C)C(=O)/C(=C/c1ccccc1C(=O)O)C2 | > 145 | 45.7 | –
C[Si](C)(C)C#C[I+]c1ccccc1 | – | – | inactive
Cc1nc(C)c(C(=O)NNC(=O)C[n+]2ccccc2)cc1C(=O)NNC(=O)C[n+]1ccccc1 | > 200 | > 200 | –
CC12CCC(C(=Nc3ccc([N+](=O)[O-])cc3)C1=O)C2(C)C (stereo unspecified) | > 200 | 35.5 | –
CCC1=C(C)/C(=C/c2[nH]c(CBr)c(CC)c2C)N=C1CBr | – | – | inactive
O=C(Nc1ccccc1)N(CCCCN(Cc1ccccc1)C(=O)Nc1ccccc1)Cc1ccccc1 | > 200 | 112 | –
C#CC1(O)CCC2C3CCc4cc(Oc5nc(F)nc(-c6c7ccccc7c7n6CCS7)n5)ccc4C3CC[C@@]21C (stereo partly specified) | > 200 | 11.2 | –
Cc1cc2c(c3oc(C4(C)OC4C4OC4C)cc(=O)c13)C(=O)c1c(O)c(C3CC(C)(N(C)C)C(O)C(C)O3)cc(C3CC(N(C)C)C(O)C(C)O3)c1C2=O (stereo unspecified) | > 0.002 | 9.55e-05 | –
Cc1ccc(S(=O)(=O)NCCSCCSCCNS(=O)(=O)c2ccc(C)cc2)cc1 | > 38.9 | > 38.9 | –
CC1=C/C(=C2/N=C(N(C)C)SS2)C(C)=N1 | – | – | inactive
COC(=O)[C@@H]1N2C(=S)N(c3ccccc3)C(=O)[C@H]2SC1(C)C | > 200 | > 200 | –
C#CCOC(=O)[C@@H](C)c1ccc2cc(OC)ccc2c1 | > 200 | 47.9 | –
C[C@H]1S[C@@H](c2ccc(Cl)cc2Cl)N(NC(=O)c2ccncc2)C1=O | > 200 | 74.1 | –
COC(=O)C(CNC(=O)/C=C/c1ccc(OC)c(OC)c1)NC(=O)/C=C/c1ccc(OC)c(OC)c1 (stereo unspecified) | > 200 | 135 | –
COc1ccc2c(C)c(CNc3ccccc3)c(=O)oc2c1OC | > 11 | > 11 | –
CC(C)OP(=O)(CCCCCCCCC/C=C/c1ccc2c(c1)OCCOCCOCCOCCO2)OC(C)C | > 200 | 12.3 | –

Compound | EC50 [µM] | IC50 [µM] | outcome
O=C1SCC(O)=C1/C=N/Nc1nc2ccccc2o1 | > 50.1 | 2.63 | –
CC(=O)O[C@H]1CC[C@@]2(C)[C@H](CC[C@@H]3[C@@H]2CC[C@]2(C)[C@@H]4[C@H](C[C@@H]32)O[C@]2(CC[C@@H](C)CO2)[C@H]4C)C1 | > 200 | > 200 | –
OC(c1ccc(C(F)(F)F)cc1)C(F)(F)c1nc2ccccc2o1 (stereo unspecified) | > 200 | > 200 | –
O=C(NCCS(=O)(=O)N1C(=O)C2CCCN2C(=O)[C@@H]1Cc1ccccc1)OCc1ccccc1 (stereo partly specified) | > 100 | 53.7 | –
CN(C)c1ccc(N=C2C=CC(=C(C#N)C#N)c3ccccc32)cc1 | – | – | inactive
CCOC(=O)/C=C/c1ccc(OC)cc1 | > 34.7 | > 34.7 | –
O=C1C(Br)=C(Br)C(=O)c2ccc(=O)ccc21 | > 55 | 9.77 | –
c1ccc(-c2c3c(nc4c2CC[C@H]4NC2=NCCN2)[C@@H](NC2=NCCN2)CC3)cc1 | > 200 | > 200 | –
CCCCC[C@@H]1CCCC2C1CC[C@@H](CC/C=C/C(=O)OC)N2C(=O)OC(C)C(Cl)(Cl)Cl (stereo partly specified) | – | – | inactive
CC1CC/C(=C\c2ccc(N(C)C)cc2)C2=C1C(c1ccc(N(C)C)cc1)NC(=S)N2 (stereo unspecified) | > 100 | > 100 | –
O=C1CCCC1CC(CN1CCOCC1)Sc1nnnn1-c1ccccc1 (stereo unspecified) | > 200 | > 200 | –
COc1ccc(/C=C/C(=O)OC/C=C/c2ccc3c(c2)OCO3)cc1OC | > 200 | 102 | –
CC(C)NC(=O)N(Nc1ccccc1)C(C)(C)C | > 200 | 110 | –
O=C(CCC(=O)CC(O)(C(F)(F)F)C(F)(F)F)CC(O)(C(F)(F)F)C(F)(F)F | > 200 | 47.9 | –
O=c1[nH]nc(Cl)c2c(O)c3ccccc3c(O)c12 | > 67.6 | 32.4 | –
Cc1cc(N(CCC#N)CCC#N)ccc1N=Nc1cccc(C(=O)O)c1 | > 72.4 | 57.5 | –
CCOC(=O)C(=[N+]=[N-])C(=O)CN1C(=O)c2ccccc2C1=O | > 437 | > 437 | –
CC12CCC3(C1)[C@H](CC2=O)C[C@@H](OC(=O)c1ccccc1)C1C(C)(C(=O)O)CCC[C@@]13C (stereo partly specified) | > 295 | 13.5 | –
CC12CCC([C@H](N3CCOCC3)/C1=N\OCCN1CCCC1)C2(C)C (stereo partly specified) | > 251 | 138 | –
Cc1ccc2c(=O)c3ccccc3sc2c1 | > 200 | > 200 | –
CN(C)C(=S)/N=c1\ssc(=S)n1Cc1ccco1 | – | – | inactive

Compound | EC50 [µM] | IC50 [µM] | outcome
CC(=O)Nc1ccc(S(=O)(=O)N/N=C/c2ccco2)cc1 | > 589 | 309 | –
COc1ccc(/C=C/C(=O)C(C)(C)C)cc1 | – | – | inactive
C(=Nc1ccc(SSc2ccc(N=C=C(c3ccccc3)c3ccccc3)cc2)cc1)=C(c1ccccc1)c1ccccc1 | > 200 | > 200 | –
O=C(NC1CCCCC1)NS(=O)(=O)c1ccc2c(c1)CCC2 | > 200 | > 200 | –
O=CC(=C(I)I)c1ccccc1 | > 2 | 1.05 | –
C=C(CBr)CCCOCc1ccccc1 | > 200 | 105 | –
COc1c2occc2c(N=Cc2ccccn2)c2ccc(=O)oc12 | > 39.8 | > 39.8 | –
COc1nc(NC2OC(COC(C)=O)C(OC(C)=O)C(OC(C)=O)C2OC(C)=O)c(N=CC=Nc2c(NC3OC(COC(C)=O)C(OC(C)=O)C(OC(C)=O)C3OC(C)=O)nc(OC)[nH]c2=O)c(=O)[nH]1 (stereo unspecified) | – | – | inactive
S=c1ncnc2cc3[nH][nH]cc3cc12 | > 67.6 | 49 | –
O=C(CC1(O)C(=O)Nc2ccccc21)c1ccncc1 (stereo unspecified) | – | – | inactive
COC(=O)C(=O)OC1(C(C)=O)CC2(c3ccccc3)OC1(c1ccccc1)c1ccccc12 (stereo unspecified) | – | – | inactive
CCOC(C[Se]CC(OCC)OCC)OCC | 37.2 | 112 | –
CCSC(SCC)=C1C(=O)N(c2ccccc2)N=C1C | > 44.7 | > 44.7 | –
C=C=C(C)C(c1ccccc1)N(C)C (stereo unspecified) | > 1050 | > 1050 | –
CCOC(=O)c1ccc(C(=O)OCC)n1-c1cc2cc(c1)CSCc1cc(cc(-n3c(C(=O)OCC)ccc3C(=O)OCC)c1)CSC2 | > 200 | > 200 | –
CCC(C)C(NC(=O)CNC(=O)C(Cc1c[nH]c2ccccc12)NC(=O)C(NC(=O)C(NC(=O)C(N)CC(C)C)C(C)O)C(C)C)C(=O)NC(CCCCN)C(=O)NC(CCC(N)=O)C(=O)NC(CC(C)C)C(=O)NC(CCC(N)=O)C(=O)NC(C)C(=O)NC(CCCN=C(N)N)C(N)=O (stereo unspecified) (H-LTVWGIKQLQAR-NH2; configuration not given here) | > 50.1 | > 50.1 | –
CC(=O)c1nc2ccccc2n1CC(=O)c1ccc([N+](=O)[O-])cc1 | > 200 | 7.59 | –
Oc1cccc2c1N1CCN2CC1 | > 200 | > 200 | –
[NH-]C(CCC(N)=O)C(=O)O.[NH-]C(CCCCN)C(=O)O.[Zn+2] (stereo unspecified) | > 200 | > 200 | –
CN(C)c1ccc2c(c1)-c1cc(N(C)C)ccc1C2=CC=C1C(=O)NC(=S)NC1=O | > 12.3 | > 12.3 | –
CC(=O)N1N=C(C)C2ON=C(c3ccc(Cl)cc3)P21 (stereo unspecified) | – | – | inactive

Compound | EC50 [µM] | IC50 [µM] | outcome
C=C(C)C(=O)NC(N)=NC#N | > 1620 | 28.8 | –
CC(C)(C)OC(=O)C(C1NC2C(=O)OCC2(CO)S1)N1C(=O)c2ccccc2C1=O (stereo unspecified) | > 200 | > 200 | –
CCOC(=O)C(=CNC(=S)c1ccncc1)C(=O)OCC | > 200 | > 200 | –
CCOC(=O)C1=C(C)OC(=O)[C@@]2(OC)C=C(Cl)[C@@]12C | > 200 | > 200 | –
CCSSC12CCCN1C(=O)C1CCCN1C2=O (stereo unspecified) | > 200 | 15.8 | –
c1ccc(COCC23CCN(Cc4ccccc4)C(CC(OCc4ccccc4)C2)S3)cc1 (stereo unspecified) | > 200 | 45.7 | –
Cn1c(=S)[nH]c2c(Cl)cc(Cl)cc2c1=O | > 200 | 138 | –
CN(C)CCOc1cccc2c1C(=O)c1ccccc1C2=O | – | – | inactive
COc1cc(-c2ccc(N=Nc3ccc4c(S(=O)(=O)O)cc(S(=O)(=O)O)c(N)c4c3O)c(OC)c2)ccc1N=Nc1ccc2c(S(=O)(=O)O)cc(S(=O)(=O)O)c(N)c2c1O | 5.01 | 49 | active
COC(=O)N(C)C(C#N)CCc1ccccc1 (stereo unspecified) | > 15.5 | > 15.5 | –
CC1=NC(C)(C)[N+]([O-])=C1 | – | – | inactive
Cc1nc(Nc2ccc(Cl)c(Cl)c2)sc1C(=O)/C=C/c1ccc2c(c1)OCO2 | > 200 | 13.5 | –
O=C(C(Cl)=C(Nc1ccccc1)Nc1ccccc1)C(Cl)Cl | > 200 | 19.5 | –
O=C(O)c1c(O)c2cc(Br)ccc2oc1=O | > 200 | 120 | –
Cc1cc(S(=O)(=O)Nc2n[nH]c(Nc3ccccc3)n2)c(SSc2cc(Cl)c(C)cc2S(=O)(=O)Nc2n[nH]c(Nc3ccccc3)n2)cc1Cl | 83.2 | 95.5 | –
O=C(NCCCl)c1ccc(Cl)c(Cl)c1 | – | – | inactive
O=P(c1ccccc1)(c1ccccc1)c1ccc2c(c1)OCCOCCOCCOCCO2 | > 200 | > 200 | –
Cc1c2ccc(Cl)cc2nc2ccc(OCCNC(=O)[C@@H](N)CCCN=C(N)N)cc12 | > 200 | 30.9 | –
O=S(=O)(NCCSSCCNS(=O)(=O)c1ccccc1)c1ccccc1 | > 200 | 13.5 | –
Cc1ccc(S(=O)(=O)NC2C(=O)c3ccccc3C(=O)C2n2ccnc2)cc1 (stereo unspecified) | > 200 | 87.1 | –
